Experimental data reported in patent US20240239784A1, “INDOLE COMPOUNDS AND METHODS OF USE” (GENZYME CORPORATION, priority 2021, published 2024).

The compounds below were run on NBD1 (assay: Aggregation analysis of NBD1 thermal stability by differential static light scattering (DSLS)). Conditions: compound at 100 μM; ΔTagg versus DMSO control.
Assay type: binding, Human
Description: Purified recombinant NBD1 was produced using previously described methods (A. Schmidt, J. L. Mendoza, P. J. Thomas (2011) Biochemical and Biophysical Approaches to Probe CFTR Structure (365-376) M. D. Amaral, K. Kunzelmann (eds.), Cysic Fibrosis, Methods in Molecular Biology 741, Springer Science+Business Media). The effect of test compounds on thermal stability of NBD1 was evaluated by differential static light scattering (DSLS) using the Harbinger Stargazer-384 instrument (Epiphyte Three, Toronto, Canada). Test compounds were dissolved and diluted to desired concentrations in 100% DMSO. The compounds or DMSO controls (100 nL) were stamped into wells of a […] low volume optical plate (Corning Inc., Corning, NY) using the Echo 555 acoustic liquid handler (Labcyte Inc., San Jose, CA).
NBD1 protein was diluted to 0.2 mg/ml in S200 buffer (50 mM Tris-HCl, 150 mM NaCl, 5 mM MgCl2, 2 mM ATP, 2 mM DTT, pH7.6) containing 1% glycerol. 10 uL of protein solution was aliquoted into the 384-well plate harboring the test compounds and 10 uL mineral oil was overlayed onto the protein solution, using the epMotion robotic liquid handler (Eppendorf North America, Hauppauge, NY). After placing into the Stargazer instrument, the plate was heated at 1° C. per minute to 70° C. Images were captured from 25° C. to 70° C. every 0.5° C. At the end of the experiment run, instrument software integrated image files and analyzed data automatically. A […] regression curve was generated for each well, representing the increase in light scattering over time. A temperature of aggregation (Tagg) was calculated based on the inflection point of the curve. To better compare data across experiments the average Tagg for DMSO control wells was calculated and subtracted from values for wells containing compounds to obtain a “ΔTagg” value. These ΔTagg values reflect stabilizing efficacy of the compounds.

Question: For `CC(C)(c1ccccc1)c1cnc(-c2cc(Oc3c(F)cc4[nH]ccc4c3CC(=O)O)ccc2F)[nH]1` [Example 4, 2-(6-Fluoro-5-(4-fluoro-3-(5-(2-phenylpropan-2-yl)-1H-imidazol-2-yl)phenoxy)-1H-indol-4-yl)acetic acid], which “DSLS NBD1/3D Human Stability delta-T (° C.) @ 100 (μM)” value (from here on “DSLS NBD1/3D Human Stability delta-T”) is on record?
Answer: A (T ≥8° C.)

Question: With `O=C(O)c1c(Oc2cccc(-c3nc(C(O)c4ccccc4)c[nH]3)c2)ccc2[nH]ccc12` (stereo not shown) [Example 81, 5-(3-(4-(Hydroxy(phenyl)methyl)-1H-imidazol-2-yl)phenoxy)-1H-indole-4-carboxylic acid] as the compound, how does the “DSLS NBD1/3D Human Stability delta-T” value read?
Answer: B (4-8° C.)

Question: With `CC(O)(c1ccccc1)c1cnc(-c2cccc([S+]([O-])c3ccc4[nH]ccc4c3)c2)[nH]1` (stereo not shown) [Example 40, 1-(2-(3-((1H-Indol-5-yl)sulfinyl)phenyl)-1H-imidazol-5-yl)-1-phenylethan-1-ol] as the compound, how does the “DSLS NBD1/3D Human Stability delta-T” value read?
Answer: C (≤4° C.)

Question: How did the “DSLS NBD1/3D Human Stability delta-T” value turn out when `OC(c1cccc(-c2nnc(Cc3ccccc3)[nH]2)c1)c1ccc2[nH]ccc2c1` (single isomer, unassigned) [Example 35A, (3-(5-Benzyl-4H-1,2,4-triazol-3-yl)phenyl)(1H-indol-5-yl)methanol] was run?
Answer: B (4-8° C.)

Question: How did the “DSLS NBD1/3D Human Stability delta-T” value turn out when `CC(O)(c1ccccc1)c1cnc(-c2cccc(Oc3ccc4[nH]ccc4c3S(C)(=O)=O)c2)[nH]1` (single isomer, unassigned) [Example 63A, 1-(2-(3-((4-(methylsulfonyl)-1H-indol-5-yl)oxy)phenyl)-1H-imidazol-5-yl)-1-phenylethan-1-ol] was run?
Answer: A (T ≥8° C.)

Question: How did the “DSLS NBD1/3D Human Stability delta-T” value turn out when `CC(C)(c1ccccc1)c1cnc(-c2cc(Oc3c(F)cc4[nH]ccc4c3CCC(=O)O)ccc2F)[nH]1` [Example 10, 3-(6-Fluoro-5-(4-fluoro-3-(5-(2-phenylpropan-2-yl)-1H-imidazol-2-yl)phenoxy)-1H-indol-4-yl)propanoic acid] was run?
Answer: A (T ≥8° C.)

Question: `NC(=O)Cc1c(Oc2cccc(-c3nnc(Cc4ccccc4)[nH]3)c2)ccc2[nH]ccc12` [Example 51, 2-(5-(3-(5-Benzyl-4H-1,2,4-triazol-3-yl)phenoxy)-1H-indol-4-yl)acetamide] was tested. Which “DSLS NBD1/3D Human Stability delta-T” value did it give?
Answer: B (4-8° C.)

Question: With `CC(O)(c1ccccc1)c1cnc(-c2cccc(Oc3ccc4[nH]ccc4c3S(C)(=O)=O)c2)[nH]1` (single isomer, unassigned) [Example 63B, 1-(2-(3-((4-(methylsulfonyl)-1H-indol-5-yl)oxy)phenyl)-1H-imidazol-5-yl)-1-phenylethan-1-ol] as the compound, how does the “DSLS NBD1/3D Human Stability delta-T” value read?
Answer: B (4-8° C.)

Question: `c1ccc(Cc2nnc(-c3cccc(Oc4ccc5[nH]cc6c5c4CNC6)c3)[nH]2)cc1` [Example 43, 6-(3-(5-Benzyl-4H-1,2,4-triazol-3-yl)phenoxy)-1,3,4,5-tetrahydropyrrolo[4,3,2-de]isoquinoline] was tested. Which “DSLS NBD1/3D Human Stability delta-T” value did it give?
Answer: C (≤4° C.)

Question: For `CC(O)(c1ccccc1)c1cnc(-c2cccc(Oc3c(F)cc4[nH]ccc4c3C=C3SC(=O)NC3=O)c2)[nH]1` (stereo not shown) [Example 3, 5-((6-fluoro-5-(3-(5-(1-hydroxy-1-phenylethyl)-1H-imidazol-2-yl)phenoxy)-1H-indol-4-yl)methylene)thiazolidine-2,4-dione], which “DSLS NBD1/3D Human Stability delta-T” value is on record?
Answer: A (T ≥8° C.)

Question: With `O=C(Cc1c(Oc2cccc(-c3nnc(Cc4ccccc4)[nH]3)c2)ccc2[nH]ccc12)NS(=O)(=O)C1CC1` [Example 12, 2-(5-(3-(5-Benzyl-4H-1,2,4-triazol-3-yl)phenoxy)-1H-indol-4-yl)-N-(cyclopropylsulfonyl)acetamide] as the compound, how does the “DSLS NBD1/3D Human Stability delta-T” value read?
Answer: A (T ≥8° C.)

Question: For `COCCS(=O)(=O)c1c(Oc2cccc(-c3ncc(C(C)(O)c4ccccc4)[nH]3)c2)c(F)cc2[nH]ccc12` (stereo not shown) [Example 61, 1-(2-(3-((6-Fluoro-4-((2-methoxyethyl)sulfonyl)-1H-indol-5-yl)oxy)phenyl)-1H-imidazol-5-yl)-1-phenylethan-1-ol], which “DSLS NBD1/3D Human Stability delta-T” value is on record?
Answer: B (4-8° C.)

Question: For `CC(C(=O)O)(c1ccccc1)c1c[nH]c(-c2cc(Oc3c(F)cc4[nH]ccc4c3F)ccc2F)n1` (stereo not shown) [Example 76, 2-(2-(5-((4,6-Difluoro-1H-indol-5-yl)oxy)-2-fluorophenyl)-1H-imidazol-4-yl)-2-phenylpropanoic acid], which “DSLS NBD1/3D Human Stability delta-T” value is on record?
Answer: B (4-8° C.)

Question: With `CN1C(=O)SC(Cc2c(Oc3ccc(F)c(-c4nc(C(C)(O)c5ccccc5)c[nH]4)c3)c(F)cc3[nH]ccc23)C1=O` (stereo not shown) [Example 70, 5-((6-fluoro-5-(4-fluoro-3-(4-(1-hydroxy-1-phenylethyl)-1H-imidazol-2-yl)phenoxy)-1H-indol-4-yl)methyl)-3-methylthiazolidine-2,4-dione] as the compound, how does the “DSLS NBD1/3D Human Stability delta-T” value read?
Answer: B (4-8° C.)

Question: For `CC(O)c1c(Oc2cccc(-c3nc(C(C)(O)c4ccccc4)c[nH]3)c2)c(F)cc2[nH]ccc12` (stereo not shown) [Example 66, 1-(2-(3-((6-Fluoro-4-(1-hydroxyethyl)-1H-indol-5-yl)oxy)phenyl)-1H-imidazol-4-yl)-1-phenylethan-1-ol], which “DSLS NBD1/3D Human Stability delta-T” value is on record?
Answer: A (T ≥8° C.)

Question: `O=C(O)Cc1c(Oc2cccc(-c3nnc(Cc4ccccc4)[nH]3)c2)ccc2[nH]ccc12` [Example 11, 2-(5-(3-(5-Benzyl-4H-1,2,4-triazol-3-yl)phenoxy)-1H-indol-4-yl)acetic acid] was tested. Which “DSLS NBD1/3D Human Stability delta-T” value did it give?
Answer: B (4-8° C.)

Question: For `Nc1ccc(-c2n[nH]c(Cc3ccccc3)n2)cc1Oc1ccc2[nH]ccc2c1` [Example 49, 2-((1H-Indol-5-yl)oxy)-4-(5-benzyl-1H-1,2,4-triazol-3-yl)aniline], which “DSLS NBD1/3D Human Stability delta-T” value is on record?
Answer: B (4-8° C.)

Question: How did the “DSLS NBD1/3D Human Stability delta-T” value turn out when `CC(O)(c1ccccc1)c1nnc(-c2cccc(Oc3ccc4[nH]ccc4n3)c2)[nH]1` (stereo not shown) [Example 16, 1-(5-(3-((1H-Pyrrolo[3,2-b]pyridin-5-yl)oxy)phenyl)-4H-1,2,4-triazol-3-yl)-1-phenylethan-1-ol] was run?
Answer: B (4-8° C.)

Question: Which “DSLS NBD1/3D Human Stability delta-T” value does the source give for `Cc1c(Oc2ccc(F)c(-c3ncc(C(C)(O)c4ccccc4)[nH]3)c2)c(F)cc2[nH]cc(CC(=O)O)c12` (stereo not shown) [Example 74, 2-(6-Fluoro-5-(4-fluoro-3-(5-(1-hydroxy-1-phenylethyl)-1H-imidazol-2-yl)phenoxy)-4-methyl-1H-indol-3-yl)acetic acid] here?
Answer: B (4-8° C.)

Question: For `CC(C)(c1ccccc1)c1cnc(-c2cc(Oc3c(F)cc4[nH]ccc4c3CCS(N)(=O)=O)ccc2F)[nH]1` [Example 75, 2-(6-Fluoro-5-(4-fluoro-3-(5-(2-phenylpropan-2-yl)-1H-imidazol-2-yl)phenoxy)-1H-indol-4-yl)ethane-1-sulfonamide], which “DSLS NBD1/3D Human Stability delta-T” value is on record?
Answer: B (4-8° C.)

Question: With `NC(=O)CC(c1cccc(-c2nnc(Cc3ccccc3)[nH]2)c1)c1ccc2[nH]ccc2c1` (stereo not shown) [Example 38, 3-(3-(5-Benzyl-4H-1,2,4-triazol-3-yl)phenyl)-3-(1H-indol-5-yl)propanamide] as the compound, how does the “DSLS NBD1/3D Human Stability delta-T” value read?
Answer: C (≤4° C.)

Question: With `CS(=O)(=O)c1c(Oc2ccc(F)c(-c3nc(C(OCC(=O)O)c4ccccc4)c[nH]3)c2)c(F)cc2[nH]ccc12` (stereo not shown) [Example 73, 2-((2-(2-Fluoro-5-((6-fluoro-4-(methylsulfonyl)-1H-indol-5-yl)oxy)phenyl)-1H-imidazol-4-yl)(phenyl)methoxy)acetic acid] as the compound, how does the “DSLS NBD1/3D Human Stability delta-T” value read?
Answer: A (T ≥8° C.)
